# Where two headings read alike, the source gives them in different places.
# What was measured:
# MSSA ATCC 25923 = test: Disk diffusion assay (zone of inhibition); format: cell-based, Staphylococcus aureus; conditions: Staphylococcus aureus; for zone of inhibition at 100 µg/disc: 100 μg in 4% P80/Span 80 (1:1); for zone of inhibition at 200 µg/disc: 200 μg in 4% P80/Span 80 (1:1); for zone of inhibition at 180 µg/disc: 180 μg; for zone of inhibition at 270 µg/disc: 270 μg
# Text: (§1) The study was designed to identify conditions that improve oritavancin diffusion in agar and consequently yield a zone diameter ≧15 mm for the CLSI quality control strain MSSA ATCC 25923. Excipients that increased the disk diffusion of oritavancin in agar relative to disks containing only oritavancin were identified and selected for further study. […] A prediffusion step at room temperature was introduced to maximize oritavancin diffusion prior to initiation of bacterial growth. In this step, the antimicrobial disks were placed on agar plates seeded with a bacterial isolate and incubated at room temperature for 3 hours. Plates were then incubated overnight at 37° C. Zone diameters around the disks in which bacterial growth was inhibited were measured with a ruler and reported in millimeters.
# (§2) Ethanol-sterilized Whatman paper disks (6 mm diameter) were allowed to dry then impregnated with 20 microliters of oritavancin solution containing total amounts ranging from 90 to 360 micrograms. Disks were allowed to dry at room temperature for various times prior to use.
# Bacterial suspensions were prepared and adjusted to an optical density of 0.1 at 600 nm. […] The plate was swabbed a second time, perpendicular to the orientation of the first swab. To assess the impact of prediffusion on diameter of inhibition zones, two disks were immediately placed on one half of the plate and the plate was incubated for 3 hours at room temperature. After 3 hours, two additional disks were placed on the other half of the plate then the plate was incubated overnight at 37° C. Zone diameters were measured with a ruler and reported in millimeters. […]
# (§3) Oritavancin powder was dissolved in freshly-prepared solutions of the indicated excipients at concentrations of 0.625, 1.25, 2.5, 5, and 10 mg/ml (adjusted for potency based on lot 875561L00 purity of 83.1%) by vortexing for a minimum of 5 minutes. Oritavancin solutions in the various excipients, while not visually clear, were free from any apparent particulates as assessed visually. Sterile Oxoid blank disks were impregnated with 20 μl of these oritavancin solutions, resulting in oritavancin disk loads ranging from 12.5 to 200 μg. Unless indicated otherwise, disks were allowed to dry overnight at room temperature prior to use.
# […] Swabbing was continued at a right angle and then at an oblique angle to the first and second swabs. Disks were placed upon the seeded plates with sterile forceps. Plates were then incubated overnight at 37° C. and inhibition zone diameters were measured with a ruler and reported in millimeters.
# MSSA ATCC 29213 = test: Disk diffusion assay (zone of inhibition); format: cell-based; conditions: Staphylococcus aureus; for zone of inhibition at 360 µg/disc: 360 μg in 5% P80, read-out: Zone diameter (mm ± SD); for zone of inhibition at 180 µg/disc: MSSA ATCC 29213, 180 μg oritavancin in 2.5% P80, read-out: Zone diameter
# Text: as §1, §2
# Bacterial suspensions were prepared and adjusted to an optical density of 0.1 at 600 nm. Standard cation-adjusted Mueller Hinton agar plates (90 mm diameter) were seeded with bacterial suspensions by initially swabbing the center of plate then moving outward towards the edge. The plate was swabbed a second time, perpendicular to the orientation of the first swab. To assess the impact of prediffusion on diameter of inhibition zones, two disks were immediately placed on one half of the plate and the plate was incubated for 3 hours at room temperature. After 3 hours, two additional disks were placed on the other half of the plate then the plate was incubated overnight at 37° C. Zone diameters were measured with a ruler and reported in millimeters.
# as §3
# Bacterial suspensions from isolated colonies on overnight cation-adjusted Mueller Hinton agar plates were prepared in sterile saline and adjusted to an optical density of 0.1 at 600 nm Standard cation-adjusted Mueller Hinton agar plates (90 mm diameter) were seeded with bacterial suspensions by initially swabbing the center of plate then moving outward. Swabbing was continued at a right angle and then at an oblique angle to the first and second swabs. Disks were placed upon the seeded plates with sterile forceps. Plates were then incubated overnight at 37° C. and inhibition zone diameters were measured with a ruler and reported in millimeters.
# [1] = read-out: Inhibition zone diameter, 25923, calcium alginate swab, dried overnight
# [2] = read-out: Inhibition zone diameter, 25923, cotton swab, dried overnight, estimate of diameter
# [3] = read-out: Inhibition zone diameter, MSSA ATCC 25923, Oxoid disk, 2.5% P80, stored 7 days, prediffusion 3 h at 4° C., duplicates
# [4] = read-out: Inhibition zone diameter, MSSA ATCC 25923, Oxoid disk, 5% P80, stored 7 days, prediffusion 3 h at 4° C., duplicates
# [5] = read-out: Inhibition zone diameter, MSSA ATCC 25923, Whatman #5 disk, 2.5% P80, stored 7 days, prediffusion 3 h at 4° C., duplicates
# [6] = read-out: Inhibition zone diameter, MSSA ATCC 25923, Whatman #5 disk, 5% P80, stored 7 days, prediffusion 3 h at 4° C., duplicates
structure (smiles),measurement,setting,value
"CN[C@H](CC(C)C)C(=O)N[C@H]1C(=O)N[C@@H](CC(N)=O)C(=O)N[C@H]2C(=O)N[C@H]3C(=O)N[C@H](C(=O)N[C@H](C(=O)O)c4cc(O)cc(O)c4-c4cc3ccc4O)[C@H](O[C@H]3C[C@](C)(N)[C@@H](O)[C@H](C)O3)c3ccc(c(Cl)c3)Oc3cc2cc(c3O[C@@H]2O[C@H](CO)[C@@H](O)[C@H](O)[C@H]2O[C@H]2C[C@](C)(NCc3ccc(-c4ccc(Cl)cc4)cc3)[C@@H](O)[C@H](C)O2)Oc2ccc(cc2Cl)[C@H]1O [oritavancin, N-(4-(4-chlorophenyl)benzyl)A82846B]",zone of inhibition at 50 µg/disc,"MSSA ATCC 25923; read-out: Inhibition zone diameter, 25923, 50 μg in 4% P80/Span 80 (1:1), cotton swab, dried overnight, estimate of diameter",24 mm
same,zone of inhibition at 100 µg/disc,MSSA ATCC 25923; [1],14 mm
same,zone of inhibition at 100 µg/disc,MSSA ATCC 25923; [2],21 mm
same,zone of inhibition at 200 µg/disc,MSSA ATCC 25923; [1],11 mm
same,zone of inhibition at 200 µg/disc,MSSA ATCC 25923; [2],15 mm
same,zone of inhibition at 1250 µg/mL,"MSSA ATCC 25923; read-out: Inhibition zone diameter, ATCC 25923, 25 μg (20 μl of 1.25 mg/ml) in 4% P80/Span 80 (1:1), calcium alginate swab, dried overnight",21 mm
same,zone of inhibition at 50 µg/disc,"MSSA ATCC 25923; read-out: Inhibition zone diameter, ATCC 25923, 50 μg, 4% P80/Span 80 ratio 50:50, dried overnight, estimate of diameter",23 mm
same,zone of inhibition at 50 µg/disc,"MSSA ATCC 25923; read-out: Inhibition zone diameter, ATCC 25923, 50 μg, 4% P80/Span 80 ratio 60:40, dried overnight, estimate of diameter",21 mm
same,zone of inhibition at 50 µg/disc,"MSSA ATCC 25923; read-out: Inhibition zone diameter, ATCC 25923, 50 μg, 4% P80/Span 80 ratio 70:30, dried overnight, estimate of diameter",19 mm
same,zone of inhibition at 50 µg/disc,"MSSA ATCC 25923; read-out: Inhibition zone diameter, ATCC 25923, 50 μg, 4% P80/Span 80 ratio 80:20, dried overnight, estimate of diameter",16 mm
same,zone of inhibition at 50 µg/disc,"MSSA ATCC 25923; read-out: Inhibition zone diameter, ATCC 25923, 50 μg, 4% P80/Span 80 ratio 90:10, dried overnight, estimate of diameter",13 mm
same,zone of inhibition at 1250 µg/mL,"MSSA ATCC 25923; read-out: Inhibition zone diameter, ATCC 25923, 20 μl of 1.25 mg/ml oritavancin in 1% poly(ethylene glycol) sorbitol hexaoleate",≤ 15 mm
same,zone of inhibition at 1250 µg/mL,"MSSA ATCC 25923; read-out: Inhibition zone diameter, ATCC 25923, 20 μl of 1.25 mg/ml oritavancin in 5% Brij 30",≤ 15 mm
same,zone of inhibition at 1250 µg/mL,"MSSA ATCC 25923; read-out: Inhibition zone diameter, ATCC 25923, 20 μl of 1.25 mg/ml oritavancin in 5% Merpol SE",≤ 15 mm
same,zone of inhibition at 18000 µg/mL,"MSSA ATCC 25923; read-out: Inhibition zone diameter, ATCC 25923, Oxoid disks, 20 μl of 18 mg/ml oritavancin in 5% P80, stored 30 days at room temperature, prediffusion 6 hours at 4° C.",> 15 mm
same,zone of inhibition at 1250 µg/mL,"MSSA ATCC 25923; read-out: Inhibition zone diameter, MSSA ATCC 25923, 20 μl of 1.25 mg/ml in 4% P80/Span 80 (1:1), cotton swab (FIG. 2), dried overnight",~24 mm
same,zone of inhibition at 1250 µg/mL,"MSSA ATCC 25923; read-out: Inhibition zone diameter, MSSA ATCC 25923, 20 μl of 1.25 mg/ml in 4% P80/Span 80 (1:1), flocked swab (FIG. 2), dried overnight",~24 mm
same,zone of inhibition at 1250 µg/mL,"MSSA ATCC 25923; read-out: Inhibition zone diameter, MSSA ATCC 25923, 20 μl of 1.25 mg/ml in 4% P80/Span 80 (1:1), foam swab (FIG. 2), dried overnight",~26 mm
same,zone of inhibition at 1250 µg/mL,"MSSA ATCC 25923; read-out: Inhibition zone diameter, MSSA ATCC 25923, 20 μl of 1.25 mg/ml in 4% P80/Span 80 (1:1), polyester swab (FIG. 2), dried overnight",~24 mm
same,zone of inhibition at 1250 µg/mL,"MSSA ATCC 25923; read-out: Inhibition zone diameter, MSSA ATCC 25923, 20 μl of 1.25 mg/ml in 4% P80/Span 80 (1:1), rayon swab (FIG. 2), dried overnight",~22 mm
same,zone of inhibition at 180 µg/disc,MSSA ATCC 25923; [3],12.5 mm
same,zone of inhibition at 180 µg/disc,MSSA ATCC 25923; [4],12 mm
same,zone of inhibition at 270 µg/disc,MSSA ATCC 25923; [3],13 mm
same,zone of inhibition at 270 µg/disc,MSSA ATCC 25923; [4],13 mm
same,zone of inhibition at 360 µg/disc,"MSSA ATCC 25923; read-out: Inhibition zone diameter, MSSA ATCC 25923, Oxoid disk, 360 μg, 2.5% P80, stored 7 days, prediffusion 3 h at 4° C., duplicates",13 mm
same,zone of inhibition at 360 µg/disc,"MSSA ATCC 25923; read-out: Inhibition zone diameter, MSSA ATCC 25923, Oxoid disk, 360 μg, 5% P80, stored 7 days, prediffusion 3 h at 4° C., duplicates",14 mm
same,zone of inhibition at 180 µg/disc,MSSA ATCC 25923; [5],15.5 mm
same,zone of inhibition at 180 µg/disc,MSSA ATCC 25923; [6],14.5 mm
same,zone of inhibition at 270 µg/disc,MSSA ATCC 25923; [5],15.5 mm
same,zone of inhibition at 270 µg/disc,MSSA ATCC 25923; [6],16 mm
same,zone of inhibition at 360 µg/disc,"MSSA ATCC 25923; read-out: Inhibition zone diameter, MSSA ATCC 25923, Whatman #5 disk, 360 μg, 2.5% P80, stored 7 days, prediffusion 3 h at 4° C., duplicates",15.5 mm
same,zone of inhibition at 360 µg/disc,"MSSA ATCC 25923; read-out: Inhibition zone diameter, MSSA ATCC 25923, Whatman #5 disk, 360 μg, 5% P80, stored 7 days, prediffusion 3 h at 4° C., duplicates",16 mm
same,zone of inhibition at 360 µg/disc,"MSSA ATCC 25923; read-out: Zone diameter (mm ± SD), ATCC 25923, 360 μg in 5% P80, Average of experiments, no prediffusion",14.9 ± 0.5 mm
same,zone of inhibition at 360 µg/disc,"MSSA ATCC 25923; read-out: Zone diameter (mm ± SD), ATCC 25923, 360 μg in 5% P80, Average of experiments, prediffusion",17.5 ± 0.6 mm
same,zone of inhibition at 360 µg/disc,"MSSA ATCC 25923; read-out: Zone diameter (mm ± SD), ATCC 25923, 360 μg in 5% P80, Experiment 1, disks stored 14 days, 3 h prediffusion at room temperature",18 mm
same,zone of inhibition at 360 µg/disc,"MSSA ATCC 25923; read-out: Zone diameter (mm ± SD), ATCC 25923, 360 μg in 5% P80, Experiment 2, disks stored 8 days, 3 h prediffusion at room temperature",17 mm
same,zone of inhibition at 360 µg/disc,"MSSA ATCC 29213; 336 h, ATCC 29213, Experiment 1, disks stored 14 days, no prediffusion",15.8 ± 0.4 mm
same,zone of inhibition at 25 µg/disc,"MSSA ATCC 29213; ATCC 29213, 25 μg (1.25 mg/ml) in 4% P80/Span 80 (1:1), dried overnight, read-out: Inhibition zone diameter",24 mm
same,zone of inhibition at 360 µg/disc,"MSSA ATCC 29213; ATCC 29213, Average, no prediffusion",15.8 ± 0.4 mm
same,zone of inhibition at 360 µg/disc,"MSSA ATCC 29213; ATCC 29213, Average, prediffusion",18.3 ± 0.4 mm
same,zone of inhibition at 360 µg/disc,"MSSA ATCC 29213; ATCC 29213, Experiment 1, disks stored 14 days, 3 h prediffusion at room temperature",18.3 ± 0.4 mm
same,zone of inhibition at 180 µg/disc,"MSSA ATCC 29213; 0% P80 in CAMHA, no prediffusion",15.3 mm
same,zone of inhibition at 180 µg/disc,"MSSA ATCC 29213; 0% P80 in CAMHA, prediffusion",18.3 mm
same,zone of inhibition at 180 µg/disc,"MSSA ATCC 29213; 1% P80 in CAMHA, no prediffusion",15.3 mm
same,zone of inhibition at 180 µg/disc,"MSSA ATCC 29213; 1% P80 in CAMHA, prediffusion",18 mm

# Source: patent US8815535B2, “Disk diffusion assay for oritavancin” (The Medicines Company, priority 2011, dated 2014)
